Source: article PMC5515891 (Scientific Reports, 2017)

These compounds were tested against Opc (Neisseria meningitidis, UniProt Q7DDI3). Settings: Opc+ outer membrane preparation (4 mg/ml, PBS) in cell, 100 µM glycan in syringe; Opc- preparation and PBS controls subtracted.
Format: binding

Sequence of Opc (Q7DDI3 20-272 limits assumed): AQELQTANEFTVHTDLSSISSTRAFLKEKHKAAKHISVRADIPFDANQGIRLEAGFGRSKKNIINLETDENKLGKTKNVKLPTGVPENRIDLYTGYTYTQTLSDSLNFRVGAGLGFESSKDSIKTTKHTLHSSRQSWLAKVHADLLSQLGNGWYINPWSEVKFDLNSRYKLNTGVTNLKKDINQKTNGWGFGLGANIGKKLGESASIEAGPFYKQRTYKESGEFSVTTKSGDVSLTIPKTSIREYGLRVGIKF

| Compound | Kd |
| --- | --- |
| CC(=O)N[C@H]1[C@H]([C@H](O)[C@H](O)CO)O[C@@](OC[C@H]2O[C@@H](O[C@H]3[C@H](O)[C@@H](O)C(O)O[C@@H]3CO)[C@H](O)[C@@H](O)[C@H]2O)(C(=O)O)C[C@@H]1O (stereo partly drawn) [11B, Neu5Acα2-6Galβ1-4Glc] | 713 ± 140 nM |
| C[C@@H]1O[C@@H](O[C@H]2C(O)O[C@H](CO)[C@H](O)[C@@H]2O)[C@@H](O)[C@H](O)[C@@H]1O (stereo partly drawn) [compound 71, Fucα1-2Galβ] | 2950 ± 590 nM |
| CC(=O)N[C@H]1[C@H](O[C@H]2[C@@H](O)[C@@H](CO)O[C@@H](O[C@H]3[C@H](O)[C@@H](O)C(O)O[C@@H]3CO)[C@@H]2O)O[C@H](CO)[C@@H](O[C@@H]2O[C@H](CO)[C@H](O)[C@H](O)[C@H]2O)[C@@H]1O (stereo partly drawn) [compound 383, Galβ1-4GlcNAcβ1-3Galβ1-4Glcβ] | 1770 ± 690 nM |
